Reference: patent US9242977B2, “Trk-inhibiting compound” (ONO PHARMACEUTICAL CO., LTD., priority 2012, dated 2016)

Assays:
Type in all cases: biochemical
TrkA = TrkA (Homo sapiens (Human), UniProt P04629); assay: Measurement of TrkA enzyme-inhibiting activity (LanthaScreen TR-FRET kinase assay); conditions: final ATP 150 μM, read-out: TrkA inhibitory activity (IC50; μM)
Protocol: TrkA-inhibiting activity was measured according to the following method using LanthaScreen™ kinase assay reagents (Invitrogen; Fluorescein-Poly GT, LanthaScreen™ Tb-PY20 and TR-FRET Dilution Buffer), TrkA (Invitrogen), ATP (Sigma-Aldrich), a kinase reaction buffer (50 mM HEPES buffer (Sigma-Aldrich) (pH 7.5) containing 0.01% Brij35 (Sigma-Aldrich), 10 mM MgCl2 (Sigma-Aldrich) and 1 mM EGTA (Sigma-Aldrich)) and 0.5 M EDTA (pH 8.0) (Invitrogen).
The present compound was dissolved in dimethylsulfoxide (hereinafter abbreviated as DMSO) to prepare a 10 mM solution. The test compound at 10 mM was distributed into a 96-well plate and serially diluted with DMSO with the geometrical ratio of 3. The serial dilutions (DMSO solutions) were diluted with the kinase reaction buffer to 20-fold to prepare solutions of the present compound with 5-times concentrations (DMSO concentration: 5%). TrkA was diluted with the kinase reaction buffer to prepare a solution at 38.5 ng/mL (enzyme solution). Adenosine triphosphate (hereinafter abbreviated as ATP) was preliminarily diluted in distilled water to prepare a 10 mM solution which was then divided into containers and stored at −20° C. The 10 mM ATP solution and Fluorescein-Poly GT were diluted in the kinase reaction buffer to prepare a solution containing […] of ATP and 500 nM of Fluorescein-Poly GT (ATP-substrate solution). EDTA (0.5 M; pH 8.0) and LanthaScreen™ Tb-PY20 were diluted in the TR-FRET Dilution Buffer to prepare a solution containing 20 mM of EDTA and 4 nM of LanthaScreen™ Tb-PY20 (detection buffer).
The solutions of the present compound (5 μL/well) and the enzyme solution (10 μL/well) were added to a 96-half well assay plate and the plate was shaken at room temperature for 10 minutes on a plate shaker (IKA™ MTS2/4 digital microplate, IKA Japan K.K.). As a control and a blank, the kinase reaction buffer containing 5% DMSO (5 μL/well) was added in place of the solution of the present compound. As a blank, the kinase reaction buffer (10 μL/well) was added in the place of the enzyme solution. The ATP-substrate solution (10 μL/well) was then added to the plate to initiate kinase reaction and the plate was shaken in the dark at room temperature for 1 hour on the plate shaker (final concentration of TrkA: 15.4 ng/mL, final concentration of the substrate: 200 nM and final concentration of ATP: 150 μM). Kinase reaction was terminated by adding the detection buffer (25 μL/well) to the plate and the plate was shaken in the dark at room temperature for 30 minutes on the plate shaker. On an Analyst GT (Molecular Devices Japan, K.K.) the wells were irradiated with excitation light at 340 nm and the fluorescence intensities at 520 nm and 495 nm were measured. The fluorescence intensity at 520 nm for each well was divided by the fluorescence intensity at 495 nm to calculate the time resolved fluorescence resonance energy transfer (TR-FRET) ratio.
The inhibition rate (%) of the present compound was calculated according to the following Equation 1: Inhibition rate (%)={1−(AX−AB)/(AC−AB)×100 Equation 1
wherein AX: the TR-FRET ratio when the present compound is added;
AB: the TR-FRET of the blank; and
AC: the TR-FRET of the control.
The value for 50% inhibition by the present compound (IC50 value) was calculated from the inhibition curve based on the inhibition rate of the present compound at respective concentrations.

Abl = Abl (Homo sapiens (Human), UniProt P00519); assay: Enzyme inhibition activity test for kinases other than Trk (selectivity test): Abl; conditions: test concentration 3 μM; read-out: Inhibition Rate (%) Abl
Protocol: (§1) A test substance (present compound or comparative compound) was dissolved in dimethylsulfoxide and further diluted with dimethylsulfoxide to prepare a solution having a concentration of 100 times the test concentration of 3 μM. The solution was further diluted to 25-fold with an assay buffer (20 mM HEPES, 0.01% Triton X-100, 2 mM DTT, pH 7.5) to obtain a test substance solution. In a similar manner a positive control substance solution was prepared with a positive control substance.
(§2) A 4-times concentration solution (5 μL) of the test substance prepared with the assay buffer, 5 μL of a 4-times concentration solution of substrate/ATP/metal (Mg) and 10 μL of a 2-times concentration solution of kinase were mixed in a well of a polypropylene 384-well plate and allowed to react at room temperature for 1 hour. The reaction was terminated by adding 60 μL of a Termination Buffer (QuickScout Screening Assist MSA; Carna Biosciences). The substrate peptide and the phosphorylated peptide in the reaction solution were separated and quantified. The kinase reaction was assessed from the product ratio (P/(P+S)) calculated from the height (S) of the peak of the substrate peptide and the height (P) of the peak of the phosphorylated peptide. Other kinases used in the kinase selectivity experiments were, for example, Abl, c-Met, b-Raf, c-Kit and KDR. The following Table 2 indicates substrates, substrate concentrations, ATP concentrations and positive control substances used in respective kinase enzyme inhibition activity tests.
(§3) The inhibition rate was calculated from the average signal intensity of the test wells containing respective test substances provided that the average signal intensity of control wells each containing all reaction components was 0% inhibition and the average signal intensity of background wells (without addition of the enzyme) was 100% inhibition.

c-Met = c-Met (Homo sapiens (Human), UniProt P08581); assay: Enzyme inhibition activity test for kinases other than Trk (selectivity test): c-Met; conditions: test concentration 3 μM; read-out: Inhibition Rate (%) c-Met
Protocol: as §1, §2, §3

b-Raf = b-Raf (Homo sapiens (Human), UniProt P15056); assay: Enzyme inhibition activity test for kinases other than Trk (selectivity test): b-Raf; conditions: test concentration 3 μM; read-out: Inhibition Rate (%) b-Raf
Protocol: as §1, §2, §3

c-Kit = c-Kit (Homo sapiens (Human), UniProt P10721); assay: Enzyme inhibition activity test for kinases other than Trk (selectivity test): c-Kit; conditions: test concentration 3 μM; read-out: Inhibition Rate (%) c-Kit
Protocol: as §1, §2, §3

KDR = KDR (Homo sapiens (Human), UniProt P35968); assay: Enzyme inhibition activity test for kinases other than Trk (selectivity test): KDR; conditions: test concentration 3 μM; read-out: Inhibition Rate (%) KDR
Protocol: as §1, §2, §3

Sequence of Abl (P00519 whole entry): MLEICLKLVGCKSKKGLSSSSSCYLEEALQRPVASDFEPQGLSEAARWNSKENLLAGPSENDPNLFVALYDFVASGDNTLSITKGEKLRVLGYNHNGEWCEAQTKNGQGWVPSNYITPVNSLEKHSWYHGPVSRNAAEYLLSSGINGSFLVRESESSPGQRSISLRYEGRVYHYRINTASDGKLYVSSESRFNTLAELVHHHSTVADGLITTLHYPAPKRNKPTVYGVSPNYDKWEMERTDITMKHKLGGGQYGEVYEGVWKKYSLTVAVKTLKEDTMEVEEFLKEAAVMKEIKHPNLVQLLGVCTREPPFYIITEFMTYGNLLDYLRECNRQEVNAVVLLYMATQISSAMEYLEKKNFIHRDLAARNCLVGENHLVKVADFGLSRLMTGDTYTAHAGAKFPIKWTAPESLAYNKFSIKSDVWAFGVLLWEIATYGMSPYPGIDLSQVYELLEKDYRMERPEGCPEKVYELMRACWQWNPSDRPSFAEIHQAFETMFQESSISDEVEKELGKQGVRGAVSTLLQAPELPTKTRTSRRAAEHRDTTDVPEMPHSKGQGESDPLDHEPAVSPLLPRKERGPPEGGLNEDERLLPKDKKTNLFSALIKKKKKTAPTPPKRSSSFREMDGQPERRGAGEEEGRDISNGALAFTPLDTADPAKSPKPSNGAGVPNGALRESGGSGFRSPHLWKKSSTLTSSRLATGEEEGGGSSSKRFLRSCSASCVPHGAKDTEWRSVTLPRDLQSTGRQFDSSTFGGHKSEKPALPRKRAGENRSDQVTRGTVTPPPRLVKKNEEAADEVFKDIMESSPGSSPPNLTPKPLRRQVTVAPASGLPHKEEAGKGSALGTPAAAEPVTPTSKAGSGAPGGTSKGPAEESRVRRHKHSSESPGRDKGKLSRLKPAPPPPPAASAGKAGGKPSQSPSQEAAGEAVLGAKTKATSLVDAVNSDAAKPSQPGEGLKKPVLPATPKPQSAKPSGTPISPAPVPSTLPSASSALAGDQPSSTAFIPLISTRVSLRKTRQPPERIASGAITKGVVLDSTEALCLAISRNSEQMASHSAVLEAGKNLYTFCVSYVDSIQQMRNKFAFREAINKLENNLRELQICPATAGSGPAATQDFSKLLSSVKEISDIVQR
Sequence of c-Kit (P10721 26-976): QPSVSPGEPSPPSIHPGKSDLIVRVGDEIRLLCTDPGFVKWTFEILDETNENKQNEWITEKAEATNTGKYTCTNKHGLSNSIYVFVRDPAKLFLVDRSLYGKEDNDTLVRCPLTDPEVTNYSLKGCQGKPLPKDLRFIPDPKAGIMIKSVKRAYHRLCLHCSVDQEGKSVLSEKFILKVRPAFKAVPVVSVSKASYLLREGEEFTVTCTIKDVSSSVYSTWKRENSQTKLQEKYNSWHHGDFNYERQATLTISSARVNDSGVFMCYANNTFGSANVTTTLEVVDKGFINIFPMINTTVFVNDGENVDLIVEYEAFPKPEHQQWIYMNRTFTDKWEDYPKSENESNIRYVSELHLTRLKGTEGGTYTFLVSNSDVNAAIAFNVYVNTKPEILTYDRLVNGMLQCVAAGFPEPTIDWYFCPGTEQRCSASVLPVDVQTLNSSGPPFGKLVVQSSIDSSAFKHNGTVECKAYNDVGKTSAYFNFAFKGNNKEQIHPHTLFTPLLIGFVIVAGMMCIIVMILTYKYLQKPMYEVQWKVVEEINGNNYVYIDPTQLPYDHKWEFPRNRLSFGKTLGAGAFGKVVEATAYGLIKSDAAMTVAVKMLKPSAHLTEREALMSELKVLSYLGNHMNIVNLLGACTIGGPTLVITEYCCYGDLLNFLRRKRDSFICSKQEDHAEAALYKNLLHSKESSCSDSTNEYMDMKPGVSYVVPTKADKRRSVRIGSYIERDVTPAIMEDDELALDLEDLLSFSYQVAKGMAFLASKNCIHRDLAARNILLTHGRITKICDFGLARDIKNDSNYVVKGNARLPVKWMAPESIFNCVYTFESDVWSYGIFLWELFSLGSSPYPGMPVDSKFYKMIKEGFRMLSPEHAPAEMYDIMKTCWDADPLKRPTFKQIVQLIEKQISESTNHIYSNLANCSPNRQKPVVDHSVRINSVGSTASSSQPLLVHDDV
Sequence of KDR (P35968 20-1356): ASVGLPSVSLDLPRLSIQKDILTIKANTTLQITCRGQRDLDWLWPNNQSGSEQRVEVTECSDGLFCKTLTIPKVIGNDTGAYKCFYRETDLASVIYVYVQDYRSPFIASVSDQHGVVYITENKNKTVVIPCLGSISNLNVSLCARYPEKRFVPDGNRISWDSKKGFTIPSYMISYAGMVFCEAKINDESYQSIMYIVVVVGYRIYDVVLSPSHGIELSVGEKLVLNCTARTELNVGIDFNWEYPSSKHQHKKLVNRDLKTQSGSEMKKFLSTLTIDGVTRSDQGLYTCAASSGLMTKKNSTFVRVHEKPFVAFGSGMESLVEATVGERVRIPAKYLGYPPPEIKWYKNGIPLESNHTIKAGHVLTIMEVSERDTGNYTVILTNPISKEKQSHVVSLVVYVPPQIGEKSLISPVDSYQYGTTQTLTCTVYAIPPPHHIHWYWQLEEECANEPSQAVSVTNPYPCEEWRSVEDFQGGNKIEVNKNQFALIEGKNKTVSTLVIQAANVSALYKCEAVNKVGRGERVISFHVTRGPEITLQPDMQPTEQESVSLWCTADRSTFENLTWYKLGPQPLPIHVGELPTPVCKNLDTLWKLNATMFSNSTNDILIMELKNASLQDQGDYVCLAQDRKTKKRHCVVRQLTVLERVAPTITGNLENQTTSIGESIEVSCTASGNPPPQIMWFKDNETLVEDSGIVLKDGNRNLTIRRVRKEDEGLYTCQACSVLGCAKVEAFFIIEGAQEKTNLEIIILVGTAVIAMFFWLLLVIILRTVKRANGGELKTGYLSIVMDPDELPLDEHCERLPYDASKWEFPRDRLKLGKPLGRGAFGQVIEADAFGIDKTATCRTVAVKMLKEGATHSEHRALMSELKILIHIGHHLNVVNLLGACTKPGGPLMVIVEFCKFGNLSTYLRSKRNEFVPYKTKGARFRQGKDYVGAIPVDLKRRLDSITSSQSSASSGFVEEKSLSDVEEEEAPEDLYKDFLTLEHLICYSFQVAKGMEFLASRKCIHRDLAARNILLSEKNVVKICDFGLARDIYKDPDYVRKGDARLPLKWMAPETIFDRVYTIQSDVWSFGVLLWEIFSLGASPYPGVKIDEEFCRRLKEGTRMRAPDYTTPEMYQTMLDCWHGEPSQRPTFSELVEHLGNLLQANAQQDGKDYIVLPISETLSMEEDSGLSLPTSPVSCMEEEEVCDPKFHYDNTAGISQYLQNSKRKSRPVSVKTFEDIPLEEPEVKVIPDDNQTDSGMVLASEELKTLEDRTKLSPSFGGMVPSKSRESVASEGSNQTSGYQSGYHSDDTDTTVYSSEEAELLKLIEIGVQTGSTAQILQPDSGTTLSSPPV
Sequence of b-Raf (P15056 whole entry): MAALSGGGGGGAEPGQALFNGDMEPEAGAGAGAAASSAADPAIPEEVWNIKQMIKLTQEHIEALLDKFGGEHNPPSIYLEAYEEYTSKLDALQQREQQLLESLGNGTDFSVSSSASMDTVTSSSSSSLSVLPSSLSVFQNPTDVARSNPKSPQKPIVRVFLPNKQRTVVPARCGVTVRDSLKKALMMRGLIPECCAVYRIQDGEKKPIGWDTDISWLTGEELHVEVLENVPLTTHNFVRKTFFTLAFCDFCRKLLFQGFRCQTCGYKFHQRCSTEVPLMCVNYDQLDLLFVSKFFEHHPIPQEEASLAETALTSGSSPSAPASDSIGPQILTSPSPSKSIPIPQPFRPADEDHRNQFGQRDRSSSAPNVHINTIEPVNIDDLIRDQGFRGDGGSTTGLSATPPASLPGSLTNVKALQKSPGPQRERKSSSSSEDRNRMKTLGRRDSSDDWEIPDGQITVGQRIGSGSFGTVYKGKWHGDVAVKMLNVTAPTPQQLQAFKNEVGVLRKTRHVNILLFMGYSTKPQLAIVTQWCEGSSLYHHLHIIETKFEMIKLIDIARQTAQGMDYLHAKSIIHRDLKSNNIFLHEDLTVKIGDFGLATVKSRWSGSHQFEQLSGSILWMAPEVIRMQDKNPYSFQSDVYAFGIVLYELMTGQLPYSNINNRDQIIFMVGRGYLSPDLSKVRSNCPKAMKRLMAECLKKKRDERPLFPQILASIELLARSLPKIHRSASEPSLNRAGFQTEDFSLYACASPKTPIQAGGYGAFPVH
Sequence of TrkA (P04629 33-796): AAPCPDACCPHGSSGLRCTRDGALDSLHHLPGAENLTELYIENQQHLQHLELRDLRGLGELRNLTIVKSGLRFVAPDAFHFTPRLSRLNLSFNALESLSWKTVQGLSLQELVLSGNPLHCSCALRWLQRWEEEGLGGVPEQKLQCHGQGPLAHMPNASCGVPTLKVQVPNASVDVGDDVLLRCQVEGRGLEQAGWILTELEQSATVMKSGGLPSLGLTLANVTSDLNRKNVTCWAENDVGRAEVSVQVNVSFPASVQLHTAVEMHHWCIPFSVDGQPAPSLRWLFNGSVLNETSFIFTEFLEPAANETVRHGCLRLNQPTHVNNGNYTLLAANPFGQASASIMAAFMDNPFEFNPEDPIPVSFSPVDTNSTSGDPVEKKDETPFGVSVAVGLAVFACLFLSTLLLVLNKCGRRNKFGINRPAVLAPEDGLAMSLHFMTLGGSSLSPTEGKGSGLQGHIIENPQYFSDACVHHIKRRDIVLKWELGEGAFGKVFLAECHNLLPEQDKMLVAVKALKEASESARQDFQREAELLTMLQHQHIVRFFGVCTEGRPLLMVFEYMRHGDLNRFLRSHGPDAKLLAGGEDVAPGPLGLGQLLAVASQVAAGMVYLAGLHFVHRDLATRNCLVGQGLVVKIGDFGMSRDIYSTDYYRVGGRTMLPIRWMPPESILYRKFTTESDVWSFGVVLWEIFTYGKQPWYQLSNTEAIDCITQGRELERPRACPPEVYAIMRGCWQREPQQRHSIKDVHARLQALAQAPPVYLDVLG

## CCNc1ncc(-c2ccc(Oc3ncc(NC(=O)Nc4cc(C(F)(F)F)cnc4-c4ccc(C)cc4)cn3)cc2)s1 [Example 23, 1-(2-{4-[2-(ethylamino)-1,3-thiazol-5-yl]phenoxy}-5-pyrimidinyl)-3-[2-(4-methylphenyl)-5-(trifluoromethyl)-3-pyridinyl]urea]
TrkA
  IC50: 0.09 µM
Abl
  inhibition at 3 µM: 25%
c-Met
  inhibition at 3 µM: 6.5%
b-Raf
  inhibition at 3 µM: 23%
c-Kit
  inhibition at 3 µM: 31%
KDR
  inhibition at 3 µM: 15%

## CCNc1ncc(-c2ccc(Oc3ccc(NC(=O)Nc4cc(C(F)(F)F)cnc4-c4ccc(C)c(C)c4)cn3)cc2)s1 [Example 34, 1-[2-(3,4-dimethylphenyl)-5-(trifluoromethyl)-3-pyridinyl]-3-(6-{4-[2-(ethylamino)-1,3-thiazol-5-yl]phenoxy}-3-pyridinyl)urea]
TrkA
  IC50: 0.18 µM

## CCNc1ncc(-c2ccc(Oc3ncc(NC(=O)Nc4cc(C(F)(F)F)cnc4Oc4ccccc4)cn3)cc2)s1 [Example 48, 1-(2-{4-[2-(ethylamino)-1,3-thiazol-5-yl]phenoxy}-5-pyrimidinyl)-3-[2-phenoxy-5-(trifluoromethyl)-3-pyridinyl]urea]
TrkA
  IC50: 0.12 µM

## O=C(Nc1cnc(Oc2ccc(-c3cnc(N4CCCC4=O)s3)cc2)nc1)Nc1cc(C(F)(F)F)cnc1-c1ccccc1 [Example 54, 1-(2-{4-[2-(2-oxo-1-pyrrolidinyl)-1,3-thiazol-5-yl]phenoxy}-5-pyrimidinyl)-3-[2-phenyl-5-(trifluoromethyl)-3-pyridinyl]urea]
TrkA
  IC50: 0.04 µM
Abl
  inhibition at 3 µM: 8.9%
c-Met
  inhibition at 3 µM: 0%
b-Raf
  inhibition at 3 µM: 17%
c-Kit
  inhibition at 3 µM: 7.2%
KDR
  inhibition at 3 µM: 2.4%

## Cc1cccc(-c2ncc(C(F)(F)F)cc2NC(=O)Nc2cnc(Oc3ccc(-c4cnc(N5CCCC5=O)s4)cc3)nc2)c1 [Example 57, 1-[2-(3-methylphenyl)-5-(trifluoromethyl)-3-pyridinyl]-3-(2-{4-[2-(2-oxo-1-pyrrolidinyl)-1,3-thiazol-5-yl]phenoxy}-5-pyrimidinyl)urea]
TrkA
  IC50: 0.03 µM
Abl
  inhibition at 3 µM: 0%
c-Met
  inhibition at 3 µM: 4.9%
b-Raf
  inhibition at 3 µM: 18%
c-Kit
  inhibition at 3 µM: 9.1%
KDR
  inhibition at 3 µM: 0%

## CCCNc1ncc(-c2ccc(Oc3ncc(NC(=O)Nc4cc(C(F)(F)F)ccc4Cl)cn3)cc2)s1 [Example 85-117, 1-[2-chloro-5-(trifluoromethyl)phenyl]-3-(2-{4-[2-(propylamino)-1,3-thiazol-5-yl]phenoxy}-5-pyrimidinyl)urea]
TrkA
  IC50: 0.02 µM
Abl
  inhibition at 3 µM: 0%
c-Met
  inhibition at 3 µM: 0%
b-Raf
  inhibition at 3 µM: 13%
c-Kit
  inhibition at 3 µM: 19%
KDR
  inhibition at 3 µM: 0%
